Patent US11413286B2, “Producing astrocytes using small molecules” (CITY OF HOPE, priority 2016, dated 2022)

Experiments:
Oct4-luc = Oct4-luc reporter induction by OAC compounds; format: cell-based; parameters: key to Oct4-luc Activity: Active: Compounds that induce Oct4-luc 1.8-fold or more were classified as being “active”; Inactive: molecules that induce Oct4-luc less than 1.8-fold were indicated as being “inactive”
reprogramming efficiency = experiment: Enhancement of reprogramming efficiency by OAC compounds; format: cell-based
MEFs = experiment: Direct reprogramming of MEFs into astrocytes, GFAP/S100β immunostaining; format: cell-based, mouse; conditions: MEFs treated for 25 days, GFAP immunostaining
Procedure: Cell culture. MEFs and TTFs were derived from E13.5 embryos of Oct4-GFP transgenic (OG2) mice (Szabo et al., 2002), wild type or GFAP-GFP transgenic mice (Jackson Laboratory) (Zhuo et al., 1997). These cells were cultured in MEF medium containing DMEM, 10% FBS, 0.1 mM nonessential amino acids, and 2 mM L-glutamine. Mouse primary astrocytes were isolated from P1-2 pups following published protocol ([…] et al., 2013) and cultured in DMEM containing 10% FBS. Direct reprogramming mouse fibroblasts into astrocytes. MEFs were plated on 6-well or 12-well plates at a cell density of 3×10^3 cells/cm^2. Cells were cultured in MEF medium for 24 hr, then changed to mouse induced astrocyte medium (iAM) containing knock-out DMEM with 10% knock-out serum replacer, 10% FBS, 2 mM L-glutamine, 0.1 mM NEAA, 0.1 mM β-mercaptoethanol, and 100 ng/ml FGF. Cells were treated with compounds, including […] valproaic acid (VPA) (Stemgent), 3 μM CHIR99021(D&C chemicals), 10 μM SB-431542 (D&C chemicals), 10 μM Tranylcypromine (Stemgent), and 1 μM OAC1(Li et al., 2012) for 10 days, replated onto Matrigel-coated plates (BD Biosciences) and continued with compound treatment for another 15 days. Cells were then switched to mouse astrocyte medium (AM) containing DMEM with 10% heat-inactivated FBS. Immunocytochemistry. […]

[1] = tested on: induced astrocytes (iA) transfected with R239C AxD mutant GFAP-GFP; experiment: GFAP protein aggregates in induced astrocytes transfected with AxD mutant GFAP-GFP; format: cell-based, mouse; conditions: 100 μM ceftriaxone for 48 hr vs vehicle
Procedure: Transfection into induced astrocytes. Induced astrocytes (iA) were seeded at 1×10^5 cells per well in 12-well plates and incubated overnight. Then 2 μg plasmid of human wild type (WT) GFAP-GFP or AxD mutant GFAP-GFP with the R239C mutation (Bachetti et al., 2008) was transfected into iA using Lipofectamine® 2000 (Invitrogen). Forty eight hr after transfection, cells were assayed by immunostaining. For drug treatment, 24 hr after transfection, cells were treated with vehicle control or 100 μM ceftriaxone for 48 hr, followed by immunostaining.
AxD is a neurological disease with astrocyte dysfunction and is caused by genetic mutation of the GFAP gene (Messing et al., 2012). Expression of AxD mutant GFAP induces the expression of αB-crystallin, a small heat shock protein, and the formation of protein aggregates containing GFAP and αB-crystallin in astrocytes (Messing et al., 2012). The compound-induced astrocytes were tested to see if they could be used to model AxD. Plasmid expressing GFP fusion of the wild type (WT) or AxD mutant GFAP containing the R239C mutation, a hotspot mutation for AxD (Hagemann et al., 2006), were transfected into VCSTO-induced astrocytes. […] VCSTO-induced astrocytes transfected with the AxD mutant GFAP were treated with ceftriaxone.

[2] = tested on: MEF transduced with AxD GFAP-GFP; experiment: GFAP protein aggregates in MEF transduced with AxD mutant GFAP-GFP; format: cell-based, mouse; conditions: ceftriaxone vs vehicle
Procedure: FIGS. 12A-12E illustrate recapitulating GFAP protein aggregates in VCSTO-induced astrocytes (iA) transfected with an AxD mutant GFAP. […] The transfected cells are indicated by GFP. Nuclei Dapi staining (blue) is included in the merged images. Scale bar, 10 μm. […] Scale bar, 10 μm. […] The percentage of iA that contained the GFAP-GFP aggregates was reduced upon ceftriaxone treatment. n=400 to 500 cells. […] MEF transduced with the AxD GFAP-GFP were treated with ceftriaxone (+Cef) or vehicle control (−Cef). The percentage of MEF that contain the GFAP-GFP aggregates remained the same in the absence or presence of ceftriaxone treatment. n=600 to 900 cells. […] Error bars are sd of the mean, **p<0.01 by Student's t-test.
AxD is a neurological disease with astrocyte dysfunction and is caused by genetic mutation of the GFAP gene (Messing et al., 2012). Expression of AxD mutant GFAP induces the expression of αB-crystallin, a small heat shock protein, and the formation of protein aggregates containing GFAP and αB-crystallin in astrocytes (Messing et al., 2012). The compound-induced astrocytes were tested to see if they could be used to model AxD. Plasmid expressing GFP fusion of the wild type (WT) or AxD mutant GFAP containing the R239C mutation, a hotspot mutation for AxD (Hagemann et al., 2006), were transfected into VCSTO-induced astrocytes. […]

Oct4-luc fold Induction (Oct4-luc)	SMILES	Oct4-luc Activity (Oct4-luc)	also measured
1.13 fold	COc1ccc(C(=O)Nc2ccc3[nH]ncc3c2)cc1OC [Compound C29]	Inactive	–
1.22 fold	CCOc1ccccc1C(=O)Nc1ccc2[nH]ncc2c1 [Compound C26]	Inactive	–
1.93 fold	COc1cccc(C(=O)Nc2ccc3[nH]ncc3c2)c1 [Compound C15]	Active	–
2.87 fold	O=C(Nc1ccc2[nH]ccc2c1)c1ccc2nonc2c1 [Compound C5]	Active	–
4.15 fold	O=C(Nc1ccc2[nH]ccc2c1)c1ccccc1 [Compound C2]	Active	Enhance reprogramming efficiency (reprogramming efficiency): YES
1.89 fold	O=C(Nc1ccc2[nH]ncc2c1)c1ccccc1 [Compound C8]	Active	–
–	NC(=O)c1ccc(-c2nc(-c3ccc4c(c3)OCO4)c(-c3ccccn3)[nH]2)cc1 [S, 4-[4-(1,3-benzodioxol-5-yl)-5-pyridin-2-yl-1H-imidazol-2-yl]benzamide]	–	induction of GFAP-positive cells from MEFs (MEFs): sufficient to induce GFAP-positive cells
2.78 fold	Cc1ccc(C(=O)Nc2ccc3[nH]ncc3c2)cc1C [Compound C13]	Active	–
1.65 fold	O=C(Nc1ccc2[nH]ncc2c1)c1cccc(Cl)c1 [Compound C19]	Inactive	–
1.5 fold	COc1ccccc1C(=O)Nc1ccc2[nH]ncc2c1 [Compound C25]	Inactive	–
1.5 fold	O=C(Nc1ccc2[nH]ncc2c1)c1ccccc1F [Compound C22]	Inactive	–
1 fold	O=C(Nc1ccc2[nH]nnc2c1)c1cccc(Cl)c1 [Compound C31]	Inactive	–
7.22 fold	CCOc1ccc(C(=O)Nc2ccc3[nH]ncc3c2)cc1 [Compound C9]	Active	–
3.78 fold	CC(C)c1ccc(C(=O)Nc2ccc3[nH]ncc3c2)cc1 [Compound C11]	Active	–
1.37 fold	COc1cccc(C(=O)Nc2ccc3[nH]ncc3c2)c1OC [Compound C27]	Inactive	–
1.72 fold	O=C(Nc1ccc2[nH]ncc2c1)c1ccccc1Cl [Compound C23]	Inactive	–
3.84 fold	O=C(Nc1ccc2[nH]ccc2c1)c1ccc(F)cc1 [Compound C3]	Active	Enhance reprogramming efficiency (reprogramming efficiency): YES

Oct4-luc fold Induction (Oct4-luc)	SMILES	Oct4-luc Activity (Oct4-luc)	also measured
1 fold	CCOc1ccc(C(=O)Nc2ccc3[nH]ncc3c2)cc1OCC [Compound C30]	Inactive	–
–	CO/N=C(\C(=O)N[C@@H]1C(=O)N2C(C(=O)O)=C(CSc3nc(=O)c(=O)[nH]n3C)CS[C@H]12)c1csc(N)n1 [ceftriaxone]	–	GFAP protein aggregates in iA with AxD mutant GFAP [1]: Substantial elimination of GFAP protein aggregates; GFAP protein aggregates in MEF with AxD mutant GFAP [2]: not responsive
2.2 fold	O=C(Nc1ccc2[nH]ncc2c1)c1ccc(F)cc1 [Compound C7]	Active	–
–	Cc1cccc(-c2n[nH]cc2-c2ccc3ncccc3n2)n1 [Compound 6, 2-[5-(6-methylpyridin-2-yl)-1H-pyrazol-4-yl]-1,5-naphthyridine]	–	induction of GFAP-positive cells from MEFs (MEFs): able to induce GFAP-positive cells
3.18 fold	COc1ccc(C(=O)Nc2ccc3[nH]ncc3c2)cc1 [Compound C6]	Active	–
1.3 fold	Cc1nc2cc(NC(=O)c3ccc([N+](=O)[O-])cc3)ccc2[nH]1 [Compound C32]	Inactive	–
1.48 fold	O=C(Nc1ccc2[nH]ncc2c1)c1cccc(Br)c1 [Compound C20]	Inactive	–
2.67 fold	CCOc1cccc(C(=O)Nc2ccc3[nH]ncc3c2)c1 [Compound C14]	Active	–
1.27 fold	O=C(Nc1ccc2[nH]ncc2c1)c1cccc(F)c1 [Compound C18]	Inactive	–
4.51 fold	CCc1ccc(C(=O)Nc2ccc3[nH]ncc3c2)cc1 [Compound C10]	Active	–
1.46 fold	O=C(Nc1ccc2[nH]ncc2c1)c1ccccc1Br [Compound C24]	Inactive	–
1 fold	CN1CCC(c2c[nH]c3ccc(NC(=O)c4ccc(F)cc4)cc23)CC1 [Compound C16]	Inactive	–
1.1 fold	Cc1ccc(C(=O)Nc2ccc3[nH]cc(C#N)c3c2)cc1 [Compound C17]	Inactive	–
5.46 fold	COc1ccc(C(=O)Nc2ccc3[nH]ccc3c2)cc1 [Compound C4]	Active	–
3.6 fold	O=C(Nc1ccc2[nH]ncc2c1)c1ccc(Cl)cc1Cl [Compound C12]	Active	–
1.42 fold	COc1ccc(C(=O)Nc2ccc3[nH]ncc3c2)c(OC)c1 [Compound C28]	Inactive	–
4.72 fold	O=C(Nc1cc2cc[nH]c2cn1)c1ccccc1 [Compound C1]	Active	Enhance reprogramming efficiency (reprogramming efficiency): YES

SMILES	Oct4-luc fold Induction (Oct4-luc)	Oct4-luc Activity (Oct4-luc)	also measured
O=C(Nc1ccc2[nH]ncc2c1)c1cccc(C(F)(F)F)c1 [Compound C21]	1.48 fold	Inactive	–
